This is an account of results in patent publication US9775902B2, “Compounds and methods for treatment of stroke” (FIBROGEN, INC, priority 2006, dated 2017).

“And” between values parts separate entries of the source, which are not always exact repeats. Identical values can stand only once. Like-named read-outs stand apart in the source and are kept apart here.

Assay [1] concerns vascular endothelial growth factor (VEGF). Briefly: Brain VEGF gene expression in mice after intravenous injection. The note with it: 20 mg/kg i.v., four hours, quantitative real time PCR normalized to 18s RNA. The assay is classed as in vivo, Swiss Webster mice. How it is done:
The effect of compounds of the present invention on regulation of cytoprotective and neuroprotective gene expression in brain was evaluated. In one series of experiments, male Swiss Webster mice were administered by intravenous injection various compounds of the present invention. Animals treated by intravenous injection received a 6 ml/kg volume of either 5% Dextrose with an equimolar amount of Meglumine (vehicle control) or 20 mg/kg of a compound of the present invention in 5% dextrose with an equimolar amount of Meglumine Animals were euthanized four hours later and their brains placed in RNAlater (Ambion, Austin Tex.) for subsequent analysis. Tissues were homogenized in Trizol (Invitrogen, Carlsbad Calif.) using 5-mm steel beads in a Mixer Mill (Qiagen, Valencia Calif.). RNA was isolated from the Trizol solution and then further purified using RNeasy kit (Qiagen). cDNA was prepared from […] total RNA using Omniscript reverse transcriptase (Qiagen) and random hexamers. Quantitative real time PCR was performed in a 7900HT instrument (Applied Biosystems, Foster City Calif.) using TaqMan Assays-on-Demand (Applied Biosystems). Gene expression levels were normalized to that of 18s RNA.

For assay [2] the test system is unchanged. Briefly: VEGF expression in Kelly neuroblastoma cells. The assay is classed as cell-based. The settings on record: for VEGF: conditioned media after overnight incubation. A digest of the protocol:
(§1)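 Kelly neuroblastoma cells treated overnight with compound, 1% DMSO as negative control. EPO and VEGF secreted into conditioned media measured by QUANTIKINE immunoassay.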

Assay [3] deals with C57BL/6 mice, permanent occlusion of the MCA. Description: Permanent middle cerebral artery occlusion (pMCAO) in C57BL/6 mice: infarct volume and edema. The note with it: C57BL/6 mice pMCAO, 20-60 mg/kg i.v.; for inhibition in vivo at up to 20 mg/kg: Mus musculus, iv, 24 h, 24 hours after MCA occlusion, read-out: Percent Reduction in Infarct Volume. Format: in vivo. A digest of the protocol: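 Male mice (25-35 g) under avertin anaesthesia had the distal MCA coagulated through a craniotomy; compound given as single i.v. bolus (20-60 mg/kg, 6 ml/kg in 5% dextrose with equimolar meglumine or NaOH) before or up to 8 h after occlusion.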

Assay [4] has as its system erythropoietin (EPO). Briefly: EPO expression in Kelly neuroblastoma cells. The assay is classed as cell-based. The settings on record: for EPO: conditioned media after overnight incubation. In outline: as §1
The subject of assay [5] is erythropoietin. Description: Plasma EPO in mice after intravenous injection. Format: in vivo, Swiss Webster mice. The settings on record: mouse plasma, 20 mg/kg i.v., four hours after injection; for fold induction at 20 mg/kg: iv, 4 h, read-out: EPO Fold Increase. A digest of the protocol:
(§2)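 Male Swiss Webster mice (29-34 g) received 20 mg/kg compound or vehicle by tail-vein injection in 5% dextrose with equimolar NaOH or meglumine. Plasma was collected 4 h later, and EPO and VEGF were measured by ELISA.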

The subject of assay [6] is erythropoietin (EPO). Briefly: EPO expression in Hep3B cells (QUANTIKINE immunoassay of conditioned media). Format: cell-based, Human. The settings on record: for Fold Increase Over Control: EPO, vs 1% DMSO control; for EPO: conditioned media after overnight incubation with compound. A digest of the protocol: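 Confluent Hep3B cells were switched to OPTI-MEM for about 24 h (20% O2, 5% CO2, 37 °C), then treated overnight with compound or 1% DMSO vehicle. EPO secreted into the conditioned medium was measured by QUANTIKINE immunoassay.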

For assay [7], the system named is VEGF. Description: Plasma VEGF in mice after intravenous injection. The assay is classed as in vivo, Swiss Webster mice. The settings on record: mouse plasma, 20 mg/kg i.v., four hours after injection; for fold induction at 20 mg/kg: iv, 4 h, read-out: VEGF Fold Increase. A digest of the protocol:
as §2

For assay [8], the system named is erythropoietin. Briefly: Plasma EPO in mice after oral gavage. The note with it: mouse plasma, oral gavage 6-60 mg/kg, six hours. The assay is classed as in vivo, Swiss Webster mice. How it is done: (§3) In another series of experiments, male Swiss Webster mice (29-34 g) were administered various compounds of the present invention via oral gavage using a ball-tipped gavage needle. Animals treated by oral gavage received a 4-10 ml/kg volume of either 0.5% carboxymethyl cellulose with or without 0.1% Polysorbate 80 (vehicle control) or various doses (6-60 mg/kg) of a compound of the present invention in 0.5% CMC, with or without 0.1% Polysorbate 80. Blood samples were collected and tissues were processed as described above. Six hours after injection, the animals were anesthetized and exsanguinated.
(§4) Plasma samples were collected in EDTA and heparin coated microtainer tubes. Plasma samples were assayed for erythropoietin and VEGF using commercially-available ELISA kits purchased from R & D Systems (Minneapolis Minn.).

Assay [9] relates to VEGF. Description: Plasma VEGF in mice after oral gavage. The note with it: mouse plasma, oral gavage 6-60 mg/kg, six hours. Format: in vivo, Swiss Webster mice. How it is done:
as §3, §4

Where [10] appears, read: compound given 4 hr after occlusion.

With `Cc1nc(C(=O)NCC(=O)O)c(O)c2cc(Oc3ccccc3)ccc12` [Compound AA, [(4-Hydroxy-1-methyl-6-phenoxy-isoquinoline-3-carbonyl)-amino]-acetic acid], the “VEGF gene expression in brain” value in [1] was 2.1.
Still for that read-out and setting: under `O=C(O)CNC(=O)c1ncc2ccc(Sc3ccccn3)cc2c1O` [Compound AB, {[4-Hydroxy-6-(pyridin-2-ylsulfanyl)-isoquinoline-3-carbonyl]-amino}-acetic acid] stands 2.1.
Turning to `O=C(O)CNC(=O)c1ncc2cc(Sc3ccccc3)ccc2c1O` [Compound E, [(4-Hydroxy-7-phenylsulfanyl-isoquinoline-3-carbonyl)-amino]-acetic acid], the “VEGF Fold Increase” value was found to be 15.8 in [2] and 1.63 in the assay on VEGF [9]. In addition, the VEGF in [2] is 2495.8 pg/mL; in the assay with VEGF [7], 66.5 pg/mL; in the assay on VEGF [9] it was 65.4 pg/mL. In addition, the “Percent Reduction in Edema” value in assay [3] (compound given −6 hr) amounted to 54%. Also, the inhibition in vivo at up to 20 mg/kg in assay [3] (setting [10]) came out at 9%; in assay [3] (compound given −6 hr), 51%. In addition, the “EPO Fold Increase” value with erythropoietin (EPO) [4] was 9.0. The EPO was 55.8 mIU/ml in the assay with erythropoietin (EPO) [4], 122 mIU/ml in the assay with erythropoietin [5] (human EPO ELISA kit (*)), 127.6 mIU/ml in the assay with erythropoietin (EPO) [6] and 17.4 mIU/ml in the assay on erythropoietin [8] (human EPO ELISA kit (*)). Moreover, the “Fold Increase Over Control” value in the assay on erythropoietin (EPO) [6] is listed as 17.0. The fold induction at 20 mg/kg in the assay with VEGF [7] stood at 1.58.
As for `O=C(O)CNC(=O)c1ncc2cc(Oc3ccc(F)cc3)ccc2c1O` [Compound G, {[7-(4-Fluoro-phenoxy)-4-hydroxy-isoquinoline-3-carbonyl]-amino}-acetic acid], the “VEGF Fold Increase” value in assay [2] amounted to 14.4; in the assay with VEGF [9], 2.58. Besides, the values for the VEGF (in [2]; with VEGF [7]; in the assay on VEGF [9]) were 2271.5 pg/mL, 86.5 pg/mL and 110.8 pg/mL, respectively. In addition, in [3] (setting [10]), the inhibition in vivo at up to 20 mg/kg was 48%. For the same compound, the “EPO Fold Increase” value with erythropoietin (EPO) [4] is given as 5.5; in the assay with erythropoietin [8] it was 123.57. The EPO stood at 34.4 mIU/ml in the assay with erythropoietin (EPO) [4], 162 mIU/ml in the assay with erythropoietin [5] (human EPO ELISA kit (*)), 73.4 mIU/ml in the assay with erythropoietin (EPO) [6] and 173 mIU/ml in the assay with erythropoietin [8] (human EPO ELISA kit (*)). Moreover, the fold induction at 20 mg/kg turned out to be 270 in the assay on erythropoietin [5] and 2.46 in the assay on VEGF [7]. For the same compound, the “Fold Increase Over Control” value with erythropoietin (EPO) [6] is recorded as 5.1.
For the compound `O=C(O)CNC(=O)c1nc(Cl)c2ccsc2c1O` [Compound L, [(4-Chloro-7-hydroxy-thieno[3,2-c]pyridine-6-carbonyl)-amino]-acetic acid], the “VEGF Fold Increase” value is 3.3 in assay [2] and 1.32 with VEGF [9]. Besides, the VEGF is 4750.0 pg/mL in assay [2], 13 pg/mL in the assay with VEGF [7] and 41 pg/mL in the assay on VEGF [9]. Further, the inhibition in vivo at up to 20 mg/kg in [3] (setting [10]) came to 48%. For the same compound, the entries for the “EPO Fold Increase” value with erythropoietin (EPO) [4] and in the assay with erythropoietin [8] were 5.2 and 11.81, respectively. The EPO in the assay on erythropoietin (EPO) [4] was 98.2 mIU/ml; in the assay on erythropoietin [5] (mouse EPO ELISA kit (**)), 400.3 pg/mL; with erythropoietin (EPO) [6], 11.1 mIU/ml; in the assay on erythropoietin [8] (mouse EPO ELISA kit (**)), 82.7 pg/mL. Moreover, the fold induction at 20 mg/kg in the assay on erythropoietin [5] came out at 14.6; in the assay on VEGF [7], 0.43. In addition, in the assay on erythropoietin (EPO) [6], the “Fold Increase Over Control” value turned out to be 4.2.
Turning to `O=C(O)CNC(=O)c1ncc2cc(Oc3ccc4c(c3)OCO4)ccc2c1O` [Compound O, {[7-(Benzo[1,3]dioxol-5-yloxy)-4-hydroxy-isoquinoline-3-carbonyl]-amino}-acetic acid], the “VEGF Fold Increase” value in [2] is reported as 3.6; with VEGF [9], 1.48. The VEGF is 5235 pg/mL in assay [2], 64 pg/mL with VEGF [7] and 46 pg/mL in the assay with VEGF [9]. In addition, the inhibition in vivo at up to 20 mg/kg in [3] (compound given 0 hr) stood at 31%. In addition, the “EPO Fold Increase” value was determined as 7.93 with erythropoietin (EPO) [4] and 11.87 in the assay on erythropoietin [8]. Also, the EPO in the assay on erythropoietin (EPO) [4] was 149.8 mIU/ml; with erythropoietin [5] (mouse EPO ELISA kit (**)), 157 pg/mL; with erythropoietin (EPO) [6], 97.4 mIU/ml; in the assay on erythropoietin [8] (mouse EPO ELISA kit (**)) it was 83.1 pg/mL. Moreover, the fold induction at 20 mg/kg came to 174 in the assay with erythropoietin [5] and 2.21 in the assay on VEGF [7]. The “Fold Increase Over Control” value in the assay with erythropoietin (EPO) [6] turned out to be 14.7.
For `O=C(O)CNC(=O)c1ncc2cc(Oc3ccc4c(c3)CCO4)ccc2c1O` [Compound X, {[7-(2,3-Dihydro-benzofuran-5-yloxy)-4-hydroxy-isoquinoline-3-carbonyl]-amino}-acetic acid], the entries for the “VEGF Fold Increase” value (in assay [2]; in the assay on VEGF [9]) were 3.9 and 1.16, respectively. Further, the VEGF in [2] amounted to 5751 pg/mL; with VEGF [7], 48 pg/mL; in the assay with VEGF [9] it was 36 pg/mL. Also, the inhibition in vivo at up to 20 mg/kg in assay [3] (compound given 0 hr) worked out at 36%. For the same compound, the “EPO Fold Increase” value is given as 13.76 in the assay on erythropoietin (EPO) [4] and 5.86 in the assay with erythropoietin [8]. The EPO with erythropoietin (EPO) [4] was 260.1 mIU/ml; with erythropoietin [5] (mouse EPO ELISA kit (**)), 183 pg/mL; in the assay on erythropoietin (EPO) [6] it was 126.2 mIU/ml; in the assay with erythropoietin [8] (mouse EPO ELISA kit (**)), 41 pg/mL. Besides, the “Fold Increase Over Control” value in the assay on erythropoietin (EPO) [6] was found to be 19.0. In addition, the fold induction at 20 mg/kg in the assay on VEGF [7] amounted to 2.4.
In the case of `O=C(O)CNC(=O)c1nc(Oc2ccccc2F)c2ccccc2c1O` [Compound Z, {[1-(2-Fluoro-phenoxy)-4-hydroxy-isoquinoline-3-carbonyl]-amino}-acetic acid], in assay [1] (20 mg/kg), the “VEGF gene expression in brain” value was 2.2 and 2.1.
